From publication PMC7785802, “Therapeutic Efficacy of a Trichinella Spiralis Paramyosin-Derived Peptide Modified With a Membrane-Targeting Signal in Mice With Antigen-Induced Arthritis” (Frontiers in Microbiology, 2020) come the findings set out here.

Data set [1] concerns complement in normal mouse serum (NMS); rabbit erythrocytes. The experiment in a line: NMS-induced complement-mediated hemolysis of rabbit erythrocytes (alternative pathway). Format: cell-based. The conditions noted are these: for inhibition of NMS-induced erythrocyte lysis: NMS 1:12.5, peptide 1.31, 2.62, 5.24 μmol, Mg-EGTA, 37°C 40 min, then rabbit erythrocytes 1 × 10^8, 30 min 37°C, absorbance 412 nm; for inhibition of NMS-induced erythrocyte lysis / inhibition of NMS-induced hemolysis compared to control peptide: three experiments; for NMS-induced erythrocyte lysis at 5.24 μmol: peptide 5.24 μmol, NMS 1:12.5; for inhibition of NMS-induced hemolysis compared to control peptide: peptide 2.62 and 5.24 μmol, *p < 0.05, **p < 0.01. The protocol: Normal human serum (NHS) was collected from six healthy volunteers, and the donation procedure was approved by the Institutional Review Board (IRB) of Capital Medical University (approval number: 2016SY01). After venous blood was collected, it was clotted in serum separator tubes for 4 h at room temperature and then centrifuged at 1,000 g for 30 min to obtain the serum. The serum was divided into aliquots and stored at −80°C. To obtain normal mouse serum (NMS), blood was collected in the […] of mice under ether anesthesia and the serum was separated and stored as described above.
When rabbit erythrocytes are placed in xenogeneic serum (such as NHS or NMS), the alternative pathway of the complement system is activated, causing lysis of the rabbit erythrocytes. To evaluate the effects of the peptides on the complement activation-mediated erythrocyte lysis (involving the alternative complement pathway), NHS or NMS (1:12.5) was incubated with various concentrations of peptides (1.31, 2.62, and 5.24 μmol) in Mg-EGTA solution (5 mM MgCl2, 10 mM EGTA) at 37°C for 40 min before adding the mixture to freshly washed erythrocytes (1 × 10^8) in gelatin veronal-buffered saline (pH 7.4, containing 0.1% gelatin) for 30 min at 37°C. Lysis was stopped with cold Hanks' Balanced Salt Solution (HBSS^++) containing 10 mM ethylenediaminetetraacetic acid (EDTA). The samples were then centrifuged at 1,000 g for 10 min to obtain the supernatant, and the amount of released hemoglobin in the supernatant was determined by measuring the absorbance at 412 nm. The hemolytic activity relative to the water-induced lysis among the same number of erythrocytes was calculated.
Figure 2 Modified peptide bound to mouse complement C9 and inhibited normal mouse serum (NMS)-induced hemolysis of rabbit erythrocytes. (A) Microscale thermophoresis assay (NanoTemper) in which biomolecular interactions are quantitated by examining the motion of the molecules along a microscopic temperature gradient induced by an infrared laser. Changes in the molecular hydration shell, charge, or size are measured using a fluorescent probe (NT-647) bound covalently to the mouse C9. Binding of control, modified and original peptides to mouse C9 were studied. […] Data points indicate the differences in normalized fluorescence (%) generated by peptides binding to mouse C9, and curves indicate the calculated fits. Error bars represent the standard error of three independent measurements. (B) NMS-induced complement-mediated hemolysis was inhibited by the modified and original peptides (2.62 and 5.24 μmol) compared to the control peptide. All experiments were performed three times and data are presented as mean ± SD. *p < 0.05, **p < 0.01.

A further data set relates to mouse ATDC5 cells. The experiment in a line: Peptide binding to cell surface, flow cytometry. Type of data set: cell-based. The following applies: 1 h room temperature, streptavidin-FITC; for binding to cell membrane of ATDC5 cells (flow cytometry) at 260 nmol: biotin-labeled peptide. From the text:
The mouse ATDC5 chondrogenic cell line is an important chondrocyte model that has been widely used in the study of chondrocyte proliferation and differentiation. This cell line was used to evaluate the membrane-binding ability of the modified peptide, as articular cartilage (which contains chondrocytes) is one of the main cellular components in the joint cavity. The cells were purchased from Guangzhou Jennio Biotech Co., Ltd. (Guangzhou, China) and maintained in Dulbecco's Modified Eagle Medium (DMEM, ThermoFisher, America) supplemented with 10% fetal bovine serum (FBS, Gibco, Australia) at 37°C in a humidified atmosphere with 5% CO2. The 5th−10th passages of the cells were used in the study.
To assess the binding ability of the modified peptide to the cell membrane, the three peptides were labeled with biotin at the C-terminus. Cultured mouse ATDC5 cells were washed with phosphate-buffered saline (PBS) and incubated with various concentrations of the control, original or modified peptides (65, 130, and 260 nmol, respectively) for 1 h at room temperature. After washing twice with PBS to remove the unbound peptides, streptavidin-fluorescein isothiocyanate (FITC; eBioscience, California, USA) was added and incubated for 0.5 h at room temperature. The cells were washed and resuspended in PBS and then the binding of the peptides to the cell membrane was assessed by flow cytometry (BD Biosciences, California, USA). To further assess the retention of peptides on the surface of cells, the mouse ATDC5 cells were cultured in a 12-well culture plate which contains cell slides on the bottom. They were washed with PBS on the next day and then blocked with normal goat serum for 30 min at room temperature before incubation with various concentrations of peptides (260 nmol, 540 nmol, and 1.08 mmol). The binding of the peptides to the cell membrane was then assessed by staining with streptavidin-FITC (eBioscience). After being stained, the cells that had adhered to the cell slides were mounted using ProLong Gold Antifade reagent (ZSGB-BIO, Beijing, china) containing 4′,6-diamidino-2-phenylindole (DAPI, ThermoFisher, America) dye to stain the cell nuclei. They were then analyzed by confocal laser scanning microscopy (Leica, Germany).
Figure 3 Modified peptide non-specifically bound to the cell surface. (A) Binding of peptides to the surface of mouse ATDC5 cells measured by flow cytometry. All experiments were performed three times and data are presented as mean ± SD. n = 5, ***p < 0.001, ns: not significant (p > 0.05). (B) Binding of various concentrations of biotin-labeled peptides on the surface of mouse ATDC5 cells assessed by confocal laser scanning microscopy. Arrowheads indicate the binding of the modified peptides on the surface of mouse ATDC5 cells.
For orientation: In flow cytometry, cells or beads pass a laser one at a time.

Data set [2] deals with normal mouse knee joint cavity. The experiment in a line: Peptide retention in normal mouse joint cavities (immunofluorescence). Format: in vivo. The following applies: biotin-labeled peptide, 10 μg in 10 μl PBS intraarticular, normal mice; for staining of joint cavity after intraarticular injection: 12, 24, 48 h, streptavidin-FITC, one mouse per time point. The protocol: As previous studies reported, immunofluorescence assay was used to assess the retention time of the peptides in normal mouse joint cavities (Williams et al., [2004]). The normal mice were divided into original and modified peptide groups and treated with the corresponding peptides [10 μg in 10 μl PBS by intraarticular (IA) injection respectively. At 12, 24, and 48 h after injection, a single mouse from each group was randomly chosen and sacrificed under anesthesia (1% sodium pentobarbital, 50 mg/kg)]. Knee joints were dissected, fixed in 4% paraformaldehyde, and decalcified with decalcification solution (0.5 M EDTA, pH 8.0) before embedding in paraffin. Midsagittal serial sections (7 μm in thickness) were cut and peptide retention was assessed using streptavidin-FITC (eBioscience) (1:100 in PBS) followed by fluorescent microscopy (Leica).
Figure 4 Retention time of the modified peptide in the joint cavities was prolonged. The biotin-labeled original or modified peptide was injected into the knee joint and then the knee joints were dissected at 12, 24, and 48 h and probed with streptavidin-FITC in immunofluorescence assays.

Where only a bound is given, the exact number is not on record here.

As to “GKMSVMSVYKSVLS [control peptide, reference compound]”, the “inhibition of NMS-induced erythrocyte lysis” value in data set [1] is “no inhibitory effect”. The “binding to cell membrane of ATDC5 cells (flow cytometry) at 260 nmol” value in the data set on mouse ATDC5 cells (260 nmol) is “did not bind to the cell membrane”.
As for “Myr-GSSKSPSKKKKKKPG-ACP-VSMGKSLSSKVYVM [modified peptide, Ts-pmy-derived peptide modified with a membrane-targeting signal]”, in data set [1], the “inhibition of NMS-induced erythrocyte lysis” value was “inhibited in a dose-dependent manner”; the “NMS-induced erythrocyte lysis at 5.24 μmol” value is “reduced, to a similar level to the NHS-induced erythrocyte lysis”; the “inhibition of NMS-induced hemolysis compared to control peptide” value is on record as “inhibited”. The “staining of joint cavity after intraarticular injection” value in data set [2] is “intense staining along the synovial lining even at 48 h after injection”. Further, in data set [2] (48 h is last time point), the “retention time on synovial lining” value was no less than 48 h. Besides, in the data set on mouse ATDC5 cells (C-terminally biotin-labeled peptide, 260 nmol, flow cytometry, n = 5), the “ATDC5 cells bound to peptide” value was roughly 100%. Also, the “binding to cell surface of ATDC5 cells (flow cytometry), concentration dependence” value in the data set on mouse ATDC5 cells (biotin-labeled peptide 65, 130, 260 nmol) is on record as “bound to the cell surface of mouse ATDC5 cells in a dose-dependent manner”.
Turning to “VSMGKSLSSKVYVM [original peptide, tetradecapeptide derived from Trichinella spiralis paramyosin (Ts-pmy)]”, in data set [1], the “inhibition of NMS-induced erythrocyte lysis” value is reported as “inhibited in a dose-dependent manner”; the “NMS-induced erythrocyte lysis at 5.24 μmol” value is on record as “reduced, to a similar level to the NHS-induced erythrocyte lysis”; the “inhibition of NMS-induced hemolysis compared to control peptide” value was “inhibited”. Further, the “staining of joint cavity after intraarticular injection” value in data set [2] is on record as “no staining”. Also, in the data set on mouse ATDC5 cells (260 nmol), the “binding to cell membrane of ATDC5 cells (flow cytometry) at 260 nmol” value is listed as “did not bind to the cell membrane”.
